Measurements taken from the supplement of paper PMC10307832.

Assays:
Assay in all cases: relative viability (nuclei count vs DMSO), 5 days (fraction); higher = more cells survive
Tosedostat + Palbociclib = compound: CC(C)C[C@@H](C(=O)N[C@H](C(=O)OC1CCCC1)c1ccccc1)[C@H](O)C(=O)NO [Tosedostat] + CC(=O)c1c(C)c2cnc(Nc3ccc(N4CCNCC4)cn3)nc2n(C2CCCC2)c1=O [Palbociclib] (partner 0.5 µM)
Procedure, shortened: (§1)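 A single step with final 0.05% Triton X-100, 1% formaldehyde and 1 ug/ml Hoechst fixed the cells and stained nuclei 5 days after treatment. Lung cancer cell lines in 1536-well plates had been treated by pin tool the day after seeding with one drug alone or a fixed anchor-drug dose plus five library-drug doses (not always all listed) in √10 steps, and nuclei were counted on 4× images. Relative viability is the ratio of nuclei in treated wells to nuclei in vehicle wells, taken as the median of duplicate plates.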

Tosedostat + Alpelisib = compound: CC(C)C[C@@H](C(=O)N[C@H](C(=O)OC1CCCC1)c1ccccc1)[C@H](O)C(=O)NO [Tosedostat] + Cc1nc(NC(=O)N2CCC[C@H]2C(N)=O)sc1-c1ccnc(C(C)(C)C(F)(F)F)c1 [Alpelisib] (partner 2 µM)
Procedure, shortened: as §1

[1] = compound: CC1=NN=C(O1)C2=NN=C(C=C2)N3CCC(CC3)OC4=C(C=CC(=C4)F)Cl + Nc1nc2[nH]cc(CCc3ccc(C(=O)N[C@@H](CCC(=O)O)C(=O)O)cc3)c2c(=O)[nH]1 [Pemetrexed] (partner 0.2 µM)
Procedure, shortened: as §1

[2] = compound: CC1=NN=C(O1)C2=NN=C(C=C2)N3CCC(CC3)OC4=C(C=CC(=C4)F)Cl + CS(=O)(=O)N1CCN(Cc2cc3nc(-c4cccc5[nH]ncc45)nc(N4CCOCC4)c3s2)CC1 [Pictilisib] (partner 1 µM)
Procedure, shortened: as §1

Row | Cell Line | relative viability (Tosedostat + Palbociclib; first compound 0.02 µM) | relative viability (Tosedostat + Palbociclib; first compound 0.06325 µM) | relative viability (Tosedostat + Palbociclib; first compound 0.2 µM) | relative viability (Tosedostat + Palbociclib; first compound 0.6325 µM) | relative viability (Tosedostat + Palbociclib; first compound 2 µM) | relative viability (Tosedostat + Alpelisib; first compound 0.02 µM) | relative viability (Tosedostat + Alpelisib; first compound 0.06325 µM) | relative viability (Tosedostat + Alpelisib; first compound 0.2 µM) | relative viability (Tosedostat + Alpelisib; first compound 0.6325 µM) | relative viability (Tosedostat + Alpelisib; first compound 2 µM) | relative viability ([1]; first compound 0.253 µM) | relative viability ([1]; first compound 0.8 µM) | relative viability ([1]; first compound 2.53 µM) | relative viability ([1]; first compound 8 µM) | relative viability ([2]; first compound 0.253 µM) | relative viability ([2]; first compound 0.8 µM) | relative viability ([2]; first compound 2.53 µM) | relative viability ([2]; first compound 8 µM)
1 | NCI-H1651 | 0.528 | 0.525 | 0.511 | 0.553 | 0.535 | 0.832 | 0.92 | 0.996 | 0.995 | 0.924 | 0.488 | 0.422 | 0.445 | 0.444 | 0.506 | 0.665 | 0.524 | 0.417
2 | NCI-H661 | 0.428 | 0.432 | 0.491 | 0.507 | 0.493 | 0.736 | 0.627 | 0.428 | 0.594 | 0.531 | 0.736 | 0.695 | 0.676 | 0.652 | 0.386 | 0.367 | 0.376 | 0.366
3 | NCI-H1755 | 0.472 | 0.47 | 0.465 | 0.503 | 0.423 | 0.941 | 0.9 | 0.922 | 0.864 | 0.883 | 0.424 | 0.426 | 0.418 | 0.365 | 0.382 | 0.383 | 0.398 | 0.387
4 | NCI-H1734 | 0.367 | 0.372 | 0.354 | 0.313 | 0.265 | 0.672 | 0.647 | 0.742 | 0.593 | 0.646 | 0.433 | 0.364 | 0.434 | 0.438 | 0.451 | 0.404 | 0.421 | 0.355
5 | NCI-H1993 | 0.72 | 0.688 | 0.698 | 0.67 | 0.562 | 0.61 | 0.688 | 0.843 | 0.561 | 0.588 | 0.533 | 0.499 | 0.566 | 0.541 | 0.742 | 0.78 | 0.821 | 0.789
6 | RERF-LC-KJ | 1.23 | 1.04 | 0.845 | 0.755 | 0.859 | 0.677 | 0.955 | 0.777 | 0.742 | 0.57 | 0.446 | 0.43 | 0.438 | 0.455 | 0.561 | 0.529 | 0.482 | 0.454
7 | HARA | 0.325 | 0.255 | 0.262 | 0.232 | 0.265 | 0.887 | 0.839 | 0.875 | 0.716 | 0.74 | 0.245 | 0.26 | 0.239 | 0.231 | 0.263 | 0.282 | 0.336 | 0.191
8 | NCI-H838 | 0.243 | 0.219 | 0.216 | 0.261 | 0.256 | 1.03 | 0.903 | 1 | 1.04 | 1.17 | 0.235 | 0.251 | 0.215 | 0.23 | 0.422 | 0.459 | 0.442 | 0.416
9 | NCI-H1666 | 0.589 | 0.696 | 0.61 | 0.601 | 0.657 | 0.99 | 0.841 | 1.06 | 0.995 | 0.951 | 0.735 | 0.69 | 0.741 | 0.751 | 0.276 | 0.414 | 0.456 | 0.313
10 | NCI-H322M | 0.466 | 0.473 | 0.459 | 0.524 | 0.455 | 0.726 | 0.902 | 0.537 | 0.755 | 0.53 | 0.629 | 0.381 | 0.578 | 0.592 | 0.511 | 0.486 | 0.482 | 0.451
11 | LCLC-97TM1 | 0.227 | 0.184 | 0.185 | 0.221 | 0.194 | 0.199 |  |  | 0.247 | 0.211 | 0.184 |  | 0.199 | 0.184 | 0.234 |  | 0.213 | 0.239
12 | EPLC-272H | 0.337 | 0.311 | 0.348 | 0.303 | 0.248 | 0.777 | 0.999 | 0.719 | 0.747 | 0.505 | 0.313 | 0.339 | 0.285 | 0.371 | 0.399 |  | 0.41 | 0.309
13 | NCI-H2023 | 0.333 | 0.331 | 0.368 | 0.344 | 0.424 | 0.571 | 0.558 | 0.675 | 0.421 | 0.483 | 0.188 | 0.189 | 0.235 | 0.182 | 0.22 | 0.27 | 0.308 | 0.18
14 | NCI-H460 | 0.192 | 0.203 | 0.11 | 0.146 | 0.128 | 0.535 | 0.472 | 0.619 | 0.689 | 0.796 | 0.0764 | 0.0663 | 0.0645 | 0.071 | 0.24 | 0.329 | 0.232 | 0.221
15 | NCI-H647 | 0.401 | 0.344 | 0.388 | 0.427 | 0.502 | 1.3 | 1.13 | 1.02 | 1.09 | 1.14 | 0.11 | 0.158 | 0.13 | 0.111 | 0.398 | 0.552 | 0.392 | 0.391
16 | NCI-H2170 | 0.399 | 0.394 | 0.393 | 0.406 | 0.393 | 0.742 | 0.829 | 0.835 | 0.777 | 0.862 | 0.241 | 0.218 | 0.242 | 0.256 | 0.282 | 0.335 | 0.368 | 0.274
17 | NCI-H1395 | 0.63 | 0.661 | 0.596 | 0.709 | 0.596 | 1.03 | 0.922 | 0.965 | 0.791 | 0.876 | 0.69 | 0.668 | 0.831 | 0.812 | 0.565 | 0.597 | 0.567 | 0.549
18 | NCI-H358 | 0.141 | 0.134 | 0.131 | 0.137 | 0.136 | 0.881 | 0.824 | 0.688 | 0.538 | 0.442 | 0.148 | 0.167 | 0.139 | 0.162 | 0.355 | 0.345 | 0.387 | 0.357
